This assay relates to CCD841Co colonic cells. The assay can be described thus: Assessment of oxygen consumption rate (OCR), Seahorse XFp. It counts as cell-based. Particulars: 1 μM FCCP, cells treated with DMSO control media. As for the experimental part:
Colonic epithelial CCD841Co cells were plated in Seahorse XFp 8-well miniplates at 8000 cells/well and allowed to attach overnight at 37° C. in a 5% CO2 incubator. Polarographic analysis of OCR was performed using Seahorse XF Analyzer (Agilent Technologies, Santa Clara, Calif.) and a Seahorse XFp Cell Mito Stress Test Kit (Agilent Technologies, catalog number 103010-100). […] Data were analyzed by the software Wave (Version 2.3.0.20, Agilent Technologies, Santa Clara, Calif.).

For `N#CC(C#N)=NNc1ccc(OC(F)(F)F)cc1` [FCCP], the “oxygen consumption rate after control compound addition” value is given as “increases oxygen consumption rate”.

The values above are taken from patent US11987579B2 (Duke University, priority 2018, dated 2024).
